In patent US7947839B2, “Heterocyclic-substituted bis-1,8 naphthalimide compounds, antibody drug conjugates, and methods of use” (Genentech, Inc., priority 2004, dated 2011):
Where two headings read alike, the source gives them in different places.

Assays:
[1] = system: human lung (LX-1) carcinoma xenograft; conditions: in vivo; cited from earlier work
[2] = system: human melanoma (LOX); conditions: in vivo; cited from earlier work
[3] = system: human colon (CX-1) carcinoma xenograft; conditions: in vivo; cited from earlier work
[4] = system: MX-1 (mammary carcinoma) xenografts; conditions: iv five daily doses at 20 mg/kg (2 cycles), or every 3 days for two doses at 55 mg/kg (2 cycles), or weekly for four doses; cited from earlier work
[5] = system: topoisomerase II; conditions: unlike most other known topoisomerase II inhibitors; cited from earlier work
[6] = target: T1, topoisomerase I isolated from calf thymus (Bos taurus, UniProt F1MN93); conditions: supercoiled DNA relaxation assay; cited from earlier work
T1 construct: topoisomerase I isolated from calf thymus; from tissue; host or cells: calf thymus
T1 sequence (F1MN93 1-767): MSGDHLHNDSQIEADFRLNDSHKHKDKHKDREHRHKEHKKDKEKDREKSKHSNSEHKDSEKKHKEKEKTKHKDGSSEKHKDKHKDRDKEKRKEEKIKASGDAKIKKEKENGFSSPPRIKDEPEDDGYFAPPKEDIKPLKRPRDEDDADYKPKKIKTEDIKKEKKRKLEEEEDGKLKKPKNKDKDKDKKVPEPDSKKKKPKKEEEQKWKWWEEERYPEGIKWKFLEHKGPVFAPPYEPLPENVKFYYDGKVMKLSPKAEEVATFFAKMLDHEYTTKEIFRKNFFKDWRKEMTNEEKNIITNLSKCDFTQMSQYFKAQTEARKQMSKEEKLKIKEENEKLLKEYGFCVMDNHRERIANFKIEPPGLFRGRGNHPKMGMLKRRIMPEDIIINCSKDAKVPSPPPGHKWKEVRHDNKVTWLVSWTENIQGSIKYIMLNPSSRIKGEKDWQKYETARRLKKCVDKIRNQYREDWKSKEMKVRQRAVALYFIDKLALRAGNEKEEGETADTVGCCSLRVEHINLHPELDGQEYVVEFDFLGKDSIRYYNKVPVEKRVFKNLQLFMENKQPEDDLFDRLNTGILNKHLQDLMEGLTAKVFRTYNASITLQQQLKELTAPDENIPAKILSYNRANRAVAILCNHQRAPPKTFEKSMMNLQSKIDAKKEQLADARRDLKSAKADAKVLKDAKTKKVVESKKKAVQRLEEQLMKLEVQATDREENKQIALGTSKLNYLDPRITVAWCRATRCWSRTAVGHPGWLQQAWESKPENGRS

[7] = system: mouse xenograft models; conditions: repeated dosing regimens; no strong schedule dependency; cited from earlier work
[8] = system: BT474, H460, HCT116, HUVEC, LNCAP, MCF7, and PC3 cells; experiment: free test compound cell-based assay, 7 tumor cell panel (CellTiter-Glo); set-up: species or system Human; conditions: NSA = no significant activity; for IC50: Homo sapiens
Method: Heterocyclic-substituted bis-1,8-naphthalimide compounds of Formula XV in Table 2 were prepared and tested for in vitro activity against a panel of tumor cells (Example 110).
Alternatively, the efficacy of compounds of the invention can be assayed by the following free test compound cell-based assay protocol
• 1. Prepare each cell line (BT474, H460, HCT116, HUVEC, LNCaP, MCF7, and PC3) at 1 k cells/well in separate plates with Complete Media (CM): RPM1 […]+10% FBS (Fetal Bovine Serum)+1% of 200 mM L-Glutamine. Plate number depends on test compounds provided by submitter. • 2. Detach prospective cell lines by first removing the media. When the flask is empty of media, begin rinsing out individual flasks with 5 mL sterile PBS. Move the PBS around within the flask to rinse well. Decant the PBS and add aseptically 5 mL of Accutase/flask. Make sure the Accutase covers the entire flask. • 3. Immediately place the flask(s) into a 37° C. incubator to allow cells to detach for 5-7 minutes. • 4. Post 5-7 minutes, remove flask(s) from the incubator and begin harvesting the detached cells using a serological pipette. Pipette up and down along the back of the flask to facilitate cell detachment. Pipette the Accutase containing cells into a sterile 50 mL conical tube/cell line. Pipette 10 mL of sterile PBS and re-rinse the flask to obtain remaining cells and dispense it into the same 50 mL conical tube/cell line for a total volume of 15 mL/tube/cell line. • 5. After each cell line has been allocated to a designated tube, take out 100 μL/tube/cell line for the cell counts. While the cell counts are being calculated, centrifuge the 50 mL tubes at 1000 rpm at 4° C. with a high brake. • 6. When centrifugation and cell calculations are completed, decant excess liquid and resuspend the cell pellet(s) using 5 mL CM, depending on calculations. • 7. Using a 5 mL syringe and an 18 G ½ needle, strain the cells to help prevent aggregation. Further strain by using a […] cell filter to block out any huge aggregates not broken down by the needle. • 8. After cell straining and filtering, take out calculated amount for a 1 k cells/well into fresh media. Take the media containing cells and load 100 μL/well into a bottom tissue culture treated flat 96 well plate. • 9. Immediately place in a 37° C. incubator overnight to allow the cells to adhere to the tissue culture treated 96 well plates. Day 2: • 1. Test compounds are submitted at 10 mM in sterile DMSO. • 2. DMSO as negative control and a positive standard are used in every assay! • 3. Prepare a 1:1000 fold dilution for each test compound, control, and standard for a 10e-5 M starting point. Do a 1:100 first, then a 1:10. • 4. Prior to diluting samples, vortex the samples and the controls for a homogeneous mixture. Note any sample that will not solubilize and/or stay in suspension. • 5. When the samples are at 10e-5 M, vortex each tube well and spin down fluid to ensure sample remains in tacked. Manual Dilution Protocol: • 1. After the tubes are at a final 1:1000 (10e-5 M) dilution, load the first column of the microtube box with the prospective sample. Load DMSO and positive control in singlets. The test compounds are loaded in duplicates. Load the remaining empty microtube racks with 540 μL of media to prepare for a serial dilution of 1:10. • 2. Agitate and transfer 60 μL from column 1 into successive wells containing 540 μL of media (1:10). Therefore, transfer 60 μL of column 1 into 540 μL of column 2. Resuspend column 2 about 10-15×'s then transfer 60 μL from column 2 to column 3 etc. Automated Dilution Protocol: • 1. Once the tubes are at a final 1:1000 (10e-5 M), load the first column of the microtube box with the prospective sample. Load DMSO and positive control in singlets. The compounds are loaded in duplicates. Load the remaining empty microtube racks manually with 540 μL of media to prepare for the automated serial dilution of 1:10 (see above diagram). • 2. […]

[9] = average linear IC50 across the 7 tumor cell panel, read-out: Avg.
[10] = average log IC50 across the 7 tumor cell panel, read-out: Avg. (log IC50) (converted)

Compound	IC50 [8, 9]	IC50 [8, 10]	further results
O=C1c2cccc3cccc(c23)C(=O)N1CCNCCCNCCN1C(=O)c2cccc3cccc(c23)C1=O [elinafide]			tumor regression in human lung (LX-1) carcinoma xenograft model [1]: partial and complete tumor regression, as well as some cures; efficacy in human melanoma (LOX) models [2]: curative; tumor regression in human colon (CX-1) carcinoma xenograft model [3]: partial and complete tumor regression, as well as some cures; regression of MX-1 (mammary carcinoma) xenografts [4]: complete regression; DNA cleavage [5]: does not cause significant DNA cleavage; IC50 [6]: 5 µM; antitumor activity [7]: demonstrated antitumor activity
CC(=O)N1CCN(c2ccc3c4c(cccc24)C(=O)N(CCNCCCNCCN2C(=O)c4cccc5c(N6CCN(C(C)=O)CC6)ccc(c45)C2=O)C3=O)CC1 [Compound 63c, N, N′-(bis-aminoethyl-1,3-propanediamine)-bis-4-(4-acetylpiperazino)-1,8 naphthalimide]	0.0011 µM	0.0011 µM	
O=C1c2cccc3c(N4CCOCC4)ccc(c23)C(=O)N1CCNCCNCCN1C(=O)c2cccc3c(N4CCOCC4)ccc(c23)C1=O [Compound 54a, N, N′-(bis-aminoethyl-1,2-ethanediamine)-bis-4-morpholino-1,8 naphthalimide]	0.0229 µM	0.0229 µM	
O=C1c2cccc3c(N4CCOCC4)ccc(c23)C(=O)N1CCNCCCN(CCN1C(=O)c2cccc3c(N4CCOCC4)ccc(c23)C1=O)C(=O)C(F)(F)F [Compound 54h, N, N′-(N-trifluoromethylacetyl, bis-aminoethyl-1,3-propanediamine)-bis-4-morpholino-1,8 naphthalimide]	0.309 µM	0.309 µM	
O=C(CN1C(=O)c2cccc3c(N4CCOCC4)ccc(c23)C1=O)NCCCNC(=O)CN1C(=O)c2cccc3c(N4CCOCC4)ccc(c23)C1=O [Compound 34, N, N′-(bis-2-acetamido-1,3-propanediamine)-bis-4-morpholino-1,8 naphtbalimide]	2.19 µM	2.19 µM	
O=C1c2cccc3c(N4CCOCC4)ccc(c23)C(=O)N1CCN1C=[N+](CCN2C(=O)c3cccc4c(N5CCOCC5)ccc(c34)C2=O)CCC1 [Compound 57, N, N′-(bis-aminoethyl-1,4,5,6-tetrahydropyrimidinium)-bis-4-morpholino-1,8 naphthalimide]	0.468 µM	0.468 µM	
CN1CCN(c2ccc3c4c(cccc24)C(=O)N(CCNCCCNCCN2C(=O)c4cccc5c(N6CCN(C)CC6)ccc(c45)C2=O)C3=O)CC1 [Compound 24a]	0.00071 µM	0.000708 µM	
NCC(=O)N(CCCNCCN1C(=O)c2cccc3c(N4CCOCC4)ccc(c23)C1=O)CCN1C(=O)c2cccc3c(N4CCOCC4)ccc(c23)C1=O [Compound 54d, N, N′-(N-glycyl, bis-aminoethyl-1,3-propanediamine)-bis-4-morpholino-1,8 naphthalimide]	0.324 µM	0.324 µM	
CC(=O)N1CCN(c2ccc3c4c(cccc24)C(=O)N(CCNCCNCCN2C(=O)c4cccc5c(N6CCN(C(C)=O)CC6)ccc(c45)C2=O)C3=O)CC1 [Compound 63a, N, N′-(bis-aminoethyl-1,2-ethanediamine)-bis 4-(4-acetylpiperazino)-1,8 naphthalimide]	0.00447 µM	0.00447 µM	
CC(=O)c1ccc2c3c(cccc13)C(=O)N(CCNCCCNCCN1C(=O)c3cccc4c(N5CCOCC5)ccc(c34)C1=O)C2=O [Compound 62, N, N′-(bis-aminoethyl-1,3-propanediamine)-4-acetyl,4-morpholino-1,8 naphthalimide]	0.00457 µM	0.00457 µM	
O=C(CN1C(=O)c2cccc3c(N4CCOCC4)ccc(c23)C1=O)NCCNCCCN1C(=O)c2cccc3c(N4CCOCC4)ccc(c23)C1=O [Compound 38]	1.82 µM	1.82 µM	
O=C(CC(=O)NCCN1C(=O)c2cccc3c(N4CCOCC4)ccc(c23)C1=O)NCCN1C(=O)c2cccc3c(N4CCOCC4)ccc(c23)C1=O [Compound 35, N, N′-(bis-ethyl, malondiamide)-bis-4-morpholino-1,8 naphthalimide]			Avg. (nM) ([8]; average linear IC50 across the 7 tumor cell panel): NSA; Avg. (log IC50) ([8]; average log IC50 across the 7 tumor cell panel): NSA
